Experimental data from patent US10023708B2, “Method of producing a delivery device” (PTT HOLDING APS, priority 2011, dated 2018).
Blank lines part the entries; values can stand above or below the compound they belong to.

Experiments:
[1] = Loading of Ceragenin CSA-13 into IPN discs and its release; settings: IPN discs about 20% PHEMA loaded in EtOH + CO2
Description: 6 IPN discs (010 mm, thickness 1-2 mm) obtained from Example 1 and with about 20% PHEMA (total mass about 1.3266 g) was loaded with about 500 mg Ceragenin CSA-13. The loading solvent was 2.00 ml 99.8% EtOH supplied by Merck (Germany) and N48 CO2 (supplied by Air Liquid Denmark A/S (Denmark)). The Ceragenin CSA-13 was initially dissolved in the 2.00 ml 99.8% EtOH and injected into a reactor of 16 ml comprising the discs. The pressure was raised to about 300 bars by injecting CO2 and the temperature was raised to about 75° C. The discs were treated at this pressure and temperature under stirring (1100 rpm) for 21 hours and 50 minutes, where after the pressure was reduced, the discs were withdrawn and allowed to cool down.

[2] = Release of miconazole nitrate from loaded IPN discs versus PDMS discs; assay type: physicochemical; settings: 75° C., 2 hours
Description: a) 10 PDMS (Polydimethylsiloxane) (silpuran 6000/40 supplied by Wacker) discs within the same mass range were used per high pressure vessel for loading drug into PDMS. […] The reactors were then coupled to a scCO2 system. scCO2 was applied at 350 bars until the pressure inside the reactors also reached 350 bars. The pressure remained at 350 bars throughout the procedure. The reaction was left for equilibration for 2 hours. d) The pressure was released, and the discs loaded with miconazole nitrate were gently cleaned with ethanol, and stored protected from light. a) 10 PDMS (Polydimethylsiloxane) discs within the same mass range were used per high pressure vessel for loading drug into PDMS. […] The reactors were then coupled to a scCO2 system. scCO2 was applied at 350 bars until the pressure inside the reactors also reached 350 bars. This pressure was maintained throughout the procedure. The reaction was left for equilibration for 2 hours. d) The pressure was released, and the discs loaded with miconazole nitrate were gently cleaned with ethanol, and stored protected from light.

[3] = Determination of work of adhesion Whc between chemical compound and second polymer; assay type: physicochemical
Text: (§1) The “work of adhesion” between two dissimilar materials is a measure of the energy required to separate the two dissimilar materials from each other. The work of adhesion is indicated with Wxy, wherein x and y respectively are the two dissimilar materials in question. Wxy is herein determined in joule per square meter of contact area of the x and y material to be separated (J/m^2). The contact area of the second polymer and the chemical component is proportional to the amount of a given chemical component and accordingly the Whc value could also be determined as J/mol chemical component. Work of adhesion (Whc) between the second polymer (h) and the chemical component (c) is determined according to the formula: Whc=γhn+γcn−γch, wherein γhn is the interfacial tension between h and n, γcn is the interfacial tension between c and n, and γch is the interfacial tension between c and h, where h=second polymer, n=normal saline and c=chemical component. The respective values of interfacial tension can be determined by any well known method or they can be calculated. Interfacial tensions can be determined from surface tensions of the individual compound, which can be measured or estimated from e.g. HSP which can be measured or estimated from group contribution calculations based on the chemical structure of the individual compound in question. […] At 1 bar and 25° C. the respective work of adhesion between sulfamethizole and the two polymers PDMS and PHEMA of the IPN of Example 1 was determined with respectively EtOH and water as loading solvents. Work of adhesion between sulfamethizole and the two polymers PDMS and PHEMA of the IPN of Example 1 was determined with varying volume fractions of EtOH in a loading solvent of EtOH and scCO2. The determination was determined at 300 bars and 75° C.

[4] = Determination of work of adhesion Wsc between chemical compound and first polymer; assay type: physicochemical
Text: as §1

[5] = Release of sulfamethizole from loaded IPN discs soaked in phosphate buffer; assay type: physicochemical; settings: soaked in phosphate buffer solution at pH 4.5 over a period of about 14 days
Description: 2.5 g sulfamethizole (Unikem) was mixed with 60 ml sodium thiosulfate solution (12 ml 0.1 M was diluted to 60 ml using deionized water).
Drug loading was performed by placing 10 discs obtained from Example 1 in a 16 ml reactor. 2.00 ml of the above sulfamethizole mixture and 2.00 ml 99.8% EtOH supplied by Merck (Germany) was fed to the reactor. The discs were kept under stirring during the treatment time. The pressure in the reactor was initially raised to about 100 bars and with a temperature of about 44° C. Thereafter the temperature was raised to 75° C. and the pressure increased to 300 bars with CO2 (N48 CO2 supplied by Air Liquid Denmark A/S).

[6] = 1 bar, 25° C., loading solvent EtOH
[7] = 1 bar, 25° C., loading solvent Water
[8] = 300 bars, 75° C., volume fractions EtOH 0.0000 / scCO2 1.0000
[9] = 300 bars, 75° C., volume fractions EtOH 0.0625 / scCO2 0.9375
[10] = 300 bars, 75° C., volume fractions EtOH 0.1250 / scCO2 0.8750
[11] = 300 bars, 75° C., volume fractions EtOH 0.1875 / scCO2 0.8125
[12] = 300 bars, 75° C., volume fractions EtOH 0.2500 / scCO2 0.7500
[13] = 300 bars, 75° C., volume fractions EtOH 0.3125 / scCO2 0.6875
[14] = 300 bars, 75° C., volume fractions EtOH 0.3750 / scCO2 0.6250
[15] = 300 bars, 75° C., volume fractions EtOH 0.4375 / scCO2 0.5625
[16] = 300 bars, 75° C., volume fractions EtOH 0.5000 / scCO2 0.5000
[17] = 300 bars, 75° C., volume fractions EtOH 0.5625 / scCO2 0.4375
[18] = 300 bars, 75° C., volume fractions EtOH 0.6250 / scCO2 0.3750
[19] = 300 bars, 75° C., volume fractions EtOH 0.6875 / scCO2 0.3125
[20] = 300 bars, 75° C., volume fractions EtOH 0.7500 / scCO2 0.2500
[21] = 300 bars, 75° C., volume fractions EtOH 0.8125 / scCO2 0.1875
[22] = 300 bars, 75° C., volume fractions EtOH 0.8750 / scCO2 0.1250
[23] = 300 bars, 75° C., volume fractions EtOH 0.9375 / scCO2 0.0625
[24] = 300 bars, 75° C., volume fractions EtOH 1.0000 / scCO2 0.0000

Compound: CCCCCCCCNCCC[C@@H](C)[C@H]1CC[C@H]2[C@@H]3[C@H](OCCCN)C[C@@H]4C[C@H](OCCCN)CC[C@]4(C)[C@H]3C[C@H](OCCCN)[C@]12C [Ceragenin CSA-13]
- release from the delivery device, microbiological effect [1]: can be released in sufficient amounts to provide a significant microbiological effect

- amount releasable from the IPN discs compared with the PDMS discs ([2]; Test 1: loaded using scCO2, 350 bars): much higher
- amount releasable from the IPN discs compared with the PDMS discs ([2]; Test 2: loaded using scCO2 and methanol, 350 bars): much higher
Compound: Clc1ccc(COC(Cn2ccnc2)c2ccc(Cl)cc2Cl)c(Cl)c1 (stereo not drawn) [miconazole nitrate]

- Work of adhesion Whc h = PHEMA c = sulfamethizole [3, 6]: 3.8908 J/m^2
- Work of adhesion Whc h = PHEMA c = sulfamethizole [3, 7]: 38.3326 J/m^2
- Work of adhesion Whc h = PHEMA c = sulfamethizole [3, 8]: 29.8588 J/m^2
- Work of adhesion Whc h = PHEMA c = sulfamethizole [3, 9]: 25.3418 J/m^2
- Work of adhesion Whc h = PHEMA c = sulfamethizole [3, 10]: 21.2182 J/m^2
- Work of adhesion Whc h = PHEMA c = sulfamethizole [3, 11]: 17.4885 J/m^2
- Work of adhesion Whc h = PHEMA c = sulfamethizole [3, 12]: 14.1531 J/m^2
- Work of adhesion Whc h = PHEMA c = sulfamethizole [3, 13]: 11.2126 J/m^2
- Work of adhesion Whc h = PHEMA c = sulfamethizole [3, 14]: 8.6675 J/m^2
- Work of adhesion Whc h = PHEMA c = sulfamethizole [3, 15]: 6.5181 J/m^2
- Work of adhesion Whc h = PHEMA c = sulfamethizole [3, 16]: 4.7652 J/m^2
- Work of adhesion Whc h = PHEMA c = sulfamethizole [3, 17]: 3.4091 J/m^2
- Work of adhesion Whc h = PHEMA c = sulfamethizole [3, 18]: 2.4503 J/m^2
- Work of adhesion Whc h = PHEMA c = sulfamethizole [3, 19]: 1.8894 J/m^2
- Work of adhesion Whc h = PHEMA c = sulfamethizole [3, 20]: 1.7267 J/m^2
- Work of adhesion Whc h = PHEMA c = sulfamethizole [3, 21]: 1.9629 J/m^2
- Work of adhesion Whc h = PHEMA c = sulfamethizole [3, 22]: 2.5985 J/m^2
- Work of adhesion Whc h = PHEMA c = sulfamethizole [3, 23]: 3.6338 J/m^2
- Work of adhesion Whc h = PHEMA c = sulfamethizole [3, 24]: 5.0694 J/m^2
- Work of adhesion Wsc s = PDMS c = sulfamethizole [4, 6]: 6.3434 J/m^2
- Work of adhesion Wsc s = PDMS c = sulfamethizole [4, 7]: 57.7309 J/m^2
- Work of adhesion Wsc s = PDMS c = sulfamethizole [4, 8]: 14.1969 J/m^2
- Work of adhesion Wsc s = PDMS c = sulfamethizole [4, 9]: 11.2585 J/m^2
- Work of adhesion Wsc s = PDMS c = sulfamethizole [4, 10]: 8.714 J/m^2
- Work of adhesion Wsc s = PDMS c = sulfamethizole [4, 11]: 6.5641 J/m^2
- Work of adhesion Wsc s = PDMS c = sulfamethizole [4, 12]: 4.8092 J/m^2
- Work of adhesion Wsc s = PDMS c = sulfamethizole [4, 13]: 3.4498 J/m^2
- Work of adhesion Wsc s = PDMS c = sulfamethizole [4, 14]: 2.4864 J/m^2
- Work of adhesion Wsc s = PDMS c = sulfamethizole [4, 15]: 1.9195 J/m^2
- Work of adhesion Wsc s = PDMS c = sulfamethizole [4, 16]: 1.7497 J/m^2
- Work of adhesion Wsc s = PDMS c = sulfamethizole [4, 17]: 1.9773 J/m^2
- Work of adhesion Wsc s = PDMS c = sulfamethizole [4, 18]: 2.6029 J/m^2
- Work of adhesion Wsc s = PDMS c = sulfamethizole [4, 19]: 3.6271 J/m^2
- Work of adhesion Wsc s = PDMS c = sulfamethizole [4, 20]: 5.0502 J/m^2
- Work of adhesion Wsc s = PDMS c = sulfamethizole [4, 21]: 6.8727 J/m^2
- Work of adhesion Wsc s = PDMS c = sulfamethizole [4, 22]: 9.0953 J/m^2
- Work of adhesion Wsc s = PDMS c = sulfamethizole [4, 23]: 11.7183 J/m^2
- Work of adhesion Wsc s = PDMS c = sulfamethizole [4, 24]: 14.7422 J/m^2
- amount of loaded compound released from the discs [5]: the major amount
Compound: Cc1nnc(NS(=O)(=O)c2ccc(N)cc2)s1 [sulfamethizole]
